Measurements: US9340590B2 (priority 2011, dated 2016)
Positions of bridges follow the written chain, without caps; N, C: chain ends. Non-standard residues stand in square brackets, D forms with d. Residues, ends and D or L forms follow the SMILES beside them. *: point of attachment. Pent4ynoyl = C#CCCC(=O)*; Pra = C#CC[C@H](N)C(=O)O; Abu = CC[C@H](N)C(=O)O

What was measured:
[1] = molecular target: hNav1.7 (Homo sapiens, UniProt Q15858); experiment: cell-based; conditions: Nav1.7 Use IC50
[2] = molecular target: hNav1.5 (Homo sapiens, UniProt Q14524); experiment: cell-based
hNav1.5, sequence (Q14524 whole entry, looked up): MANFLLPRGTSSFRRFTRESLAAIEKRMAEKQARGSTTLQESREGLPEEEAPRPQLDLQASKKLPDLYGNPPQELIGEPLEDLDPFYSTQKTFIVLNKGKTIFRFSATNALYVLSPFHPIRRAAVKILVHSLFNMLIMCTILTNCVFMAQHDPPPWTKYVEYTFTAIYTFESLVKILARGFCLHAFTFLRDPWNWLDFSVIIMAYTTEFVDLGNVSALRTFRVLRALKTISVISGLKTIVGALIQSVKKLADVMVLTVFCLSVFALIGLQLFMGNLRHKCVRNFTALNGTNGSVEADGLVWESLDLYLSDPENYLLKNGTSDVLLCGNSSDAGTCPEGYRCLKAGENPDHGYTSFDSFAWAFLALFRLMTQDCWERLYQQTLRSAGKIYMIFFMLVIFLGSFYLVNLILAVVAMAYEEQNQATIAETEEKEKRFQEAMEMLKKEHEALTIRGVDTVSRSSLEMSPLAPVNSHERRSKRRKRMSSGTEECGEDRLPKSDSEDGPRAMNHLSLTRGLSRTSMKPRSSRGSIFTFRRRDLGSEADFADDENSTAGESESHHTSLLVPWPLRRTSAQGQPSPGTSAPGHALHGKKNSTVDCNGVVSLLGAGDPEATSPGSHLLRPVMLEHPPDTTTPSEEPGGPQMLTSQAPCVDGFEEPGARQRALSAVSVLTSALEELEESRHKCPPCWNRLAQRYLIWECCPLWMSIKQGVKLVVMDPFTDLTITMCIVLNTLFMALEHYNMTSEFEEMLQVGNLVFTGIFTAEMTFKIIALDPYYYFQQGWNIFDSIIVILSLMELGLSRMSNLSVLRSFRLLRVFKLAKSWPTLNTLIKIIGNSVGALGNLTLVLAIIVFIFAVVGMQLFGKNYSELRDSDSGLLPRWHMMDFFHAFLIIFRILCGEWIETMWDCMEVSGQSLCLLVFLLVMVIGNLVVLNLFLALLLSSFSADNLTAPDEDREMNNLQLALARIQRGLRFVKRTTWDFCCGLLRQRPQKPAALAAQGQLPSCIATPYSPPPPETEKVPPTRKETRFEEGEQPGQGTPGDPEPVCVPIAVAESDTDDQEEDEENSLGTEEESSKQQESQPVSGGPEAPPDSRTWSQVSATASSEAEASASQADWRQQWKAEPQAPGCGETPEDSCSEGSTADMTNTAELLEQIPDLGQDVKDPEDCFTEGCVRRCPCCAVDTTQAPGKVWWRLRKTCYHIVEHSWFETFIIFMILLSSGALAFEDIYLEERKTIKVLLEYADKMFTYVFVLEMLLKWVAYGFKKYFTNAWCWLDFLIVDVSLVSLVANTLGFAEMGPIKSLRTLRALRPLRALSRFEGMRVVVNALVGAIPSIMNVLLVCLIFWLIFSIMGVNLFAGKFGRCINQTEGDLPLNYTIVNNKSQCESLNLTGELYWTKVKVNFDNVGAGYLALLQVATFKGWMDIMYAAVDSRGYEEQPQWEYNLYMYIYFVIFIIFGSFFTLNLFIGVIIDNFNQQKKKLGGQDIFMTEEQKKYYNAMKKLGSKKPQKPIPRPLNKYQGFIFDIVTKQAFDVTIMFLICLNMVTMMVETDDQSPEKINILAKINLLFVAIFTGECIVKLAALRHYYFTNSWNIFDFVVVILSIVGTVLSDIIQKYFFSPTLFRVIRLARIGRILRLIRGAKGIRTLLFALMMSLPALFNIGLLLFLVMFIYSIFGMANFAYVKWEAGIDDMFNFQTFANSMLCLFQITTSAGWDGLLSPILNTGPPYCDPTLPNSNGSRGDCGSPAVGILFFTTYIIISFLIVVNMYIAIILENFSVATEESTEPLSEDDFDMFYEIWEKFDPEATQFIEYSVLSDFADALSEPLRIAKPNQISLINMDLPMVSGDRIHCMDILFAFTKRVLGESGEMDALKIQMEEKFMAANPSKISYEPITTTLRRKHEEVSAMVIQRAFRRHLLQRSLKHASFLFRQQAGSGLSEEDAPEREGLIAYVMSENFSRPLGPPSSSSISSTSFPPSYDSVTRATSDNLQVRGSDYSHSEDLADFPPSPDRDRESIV

hNav1.7, sequence (Q15858 whole entry, looked up): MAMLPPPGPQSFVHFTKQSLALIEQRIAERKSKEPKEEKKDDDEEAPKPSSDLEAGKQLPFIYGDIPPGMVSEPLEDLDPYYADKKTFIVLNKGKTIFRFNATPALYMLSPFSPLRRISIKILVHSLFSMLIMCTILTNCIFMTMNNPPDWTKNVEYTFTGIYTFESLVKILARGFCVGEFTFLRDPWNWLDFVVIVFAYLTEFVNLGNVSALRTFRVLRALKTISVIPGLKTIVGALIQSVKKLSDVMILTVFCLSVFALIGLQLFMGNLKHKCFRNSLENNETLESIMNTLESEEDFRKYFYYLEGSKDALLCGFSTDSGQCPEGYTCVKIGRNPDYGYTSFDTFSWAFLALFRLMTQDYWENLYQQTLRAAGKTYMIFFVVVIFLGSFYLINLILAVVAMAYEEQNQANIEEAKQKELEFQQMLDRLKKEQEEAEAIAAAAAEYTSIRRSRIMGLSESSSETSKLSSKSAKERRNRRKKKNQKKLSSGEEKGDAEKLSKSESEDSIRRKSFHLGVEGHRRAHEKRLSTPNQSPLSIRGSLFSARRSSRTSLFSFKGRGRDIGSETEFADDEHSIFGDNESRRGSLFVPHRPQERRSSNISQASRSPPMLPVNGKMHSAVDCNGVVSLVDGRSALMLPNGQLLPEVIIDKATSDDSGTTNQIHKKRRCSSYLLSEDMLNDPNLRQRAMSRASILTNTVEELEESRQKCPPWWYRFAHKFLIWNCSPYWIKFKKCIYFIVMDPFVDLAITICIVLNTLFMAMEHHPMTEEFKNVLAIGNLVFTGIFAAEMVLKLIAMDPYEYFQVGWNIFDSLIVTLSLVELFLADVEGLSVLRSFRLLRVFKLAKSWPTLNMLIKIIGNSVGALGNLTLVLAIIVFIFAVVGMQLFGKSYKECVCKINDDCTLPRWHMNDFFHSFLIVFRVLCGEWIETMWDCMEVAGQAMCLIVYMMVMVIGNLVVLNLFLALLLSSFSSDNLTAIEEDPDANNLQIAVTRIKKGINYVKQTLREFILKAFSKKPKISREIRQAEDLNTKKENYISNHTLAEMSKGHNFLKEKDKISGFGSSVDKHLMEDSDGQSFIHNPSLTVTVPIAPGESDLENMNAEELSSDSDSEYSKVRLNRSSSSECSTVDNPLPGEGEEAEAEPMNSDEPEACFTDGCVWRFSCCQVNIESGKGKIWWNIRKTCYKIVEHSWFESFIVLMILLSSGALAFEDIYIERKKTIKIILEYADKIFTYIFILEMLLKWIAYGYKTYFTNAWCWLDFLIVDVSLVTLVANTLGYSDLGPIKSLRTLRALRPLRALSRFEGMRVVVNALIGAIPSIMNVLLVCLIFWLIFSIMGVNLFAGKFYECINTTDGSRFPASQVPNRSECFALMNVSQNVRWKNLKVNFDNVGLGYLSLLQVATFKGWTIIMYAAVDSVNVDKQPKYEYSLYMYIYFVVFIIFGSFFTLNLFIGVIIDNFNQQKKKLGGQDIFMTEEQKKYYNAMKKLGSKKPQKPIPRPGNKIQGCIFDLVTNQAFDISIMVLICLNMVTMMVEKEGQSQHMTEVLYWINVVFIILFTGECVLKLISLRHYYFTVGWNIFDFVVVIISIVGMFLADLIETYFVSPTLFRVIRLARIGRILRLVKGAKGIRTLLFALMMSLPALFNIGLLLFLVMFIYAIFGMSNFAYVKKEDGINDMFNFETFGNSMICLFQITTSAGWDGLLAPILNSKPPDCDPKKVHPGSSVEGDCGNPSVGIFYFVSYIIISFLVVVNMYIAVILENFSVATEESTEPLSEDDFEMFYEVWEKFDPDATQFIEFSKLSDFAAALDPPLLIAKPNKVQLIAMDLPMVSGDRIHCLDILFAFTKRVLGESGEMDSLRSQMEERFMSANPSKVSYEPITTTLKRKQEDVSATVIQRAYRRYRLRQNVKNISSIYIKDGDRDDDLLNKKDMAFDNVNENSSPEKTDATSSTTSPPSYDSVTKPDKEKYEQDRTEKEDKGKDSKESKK

CC[C@@H]1NC(=O)[C@H](CC(=O)O)NC(=O)[C@@H]2CCCN2C(=O)[C@H]([C@@H](C)CC)NC(=O)[C@@H]2CSSC[C@@H]3NC(=O)[C@H](C(C)C)NC(=O)[C@H](CC(C)C)NC(=O)[C@H](CC(N)=O)NC(=O)[C@@H]4CCCN4C(=O)[C@H](CCCNC(=N)N)NC(=O)[C@H](CSSC[C@H](NC(=O)[C@@H](N)CC(=O)O)C(=O)N[C@@H](CC(C)C)C(=O)NCC(=O)N[C@@H](C)C(=O)N[C@@H](Cc4ccccc4)C(=O)N[C@@H](CCCNC(=N)N)C(=O)N[C@@H](CCCCN)C(=O)N2)NC(=O)[C@H](CSSC[C@@H](C(=O)N[C@@H](CCCCN)C(=O)N[C@@H](Cc2ccc(O)cc2)C(=O)N[C@H](C(=O)N[C@@H](Cc2ccccc2)C(N)=O)C(C)C)NC(=O)[C@H](Cc2c[nH]c4ccccc24)NC(=O)[C@H](CCCNC(=N)N)NC(=O)[C@H](Cc2c[nH]cn2)NC(=O)[C@H](CC(C)C)NC(=O)[C@H](CCCNC(=N)N)NC(=O)[C@H](CO)NC3=O)NC(=O)[C@H](CCCCN)NC(=O)[C@H](CC(=O)O)NC1=O (H-DCLGAFRKCIPD[Abu]DKCCRPNLVCSRLHRWCKYVF-NH2; disulfide 2-17, 9-23, 16-30)
IC50 [1]: 4.7 nM
IC50 [2]: > 10000 nM

C#CC[C@@H]1NC(=O)[C@H](CC(=O)O)NC(=O)[C@@H]2CCCN2C(=O)[C@H]([C@@H](C)CC)NC(=O)[C@@H]2CSSC[C@@H]3NC(=O)[C@H](C(C)C)NC(=O)[C@H](CC(C)C)NC(=O)[C@H](CC(N)=O)NC(=O)[C@@H]4CCCN4C(=O)[C@H](CCCNC(=N)N)NC(=O)[C@H](CSSC[C@H](NC(=O)[C@@H](N)CC(=O)O)C(=O)N[C@@H](CC(C)C)C(=O)NCC(=O)N[C@@H](C)C(=O)N[C@@H](Cc4ccccc4)C(=O)N[C@@H](CCCNC(=N)N)C(=O)N[C@@H](CCCCN)C(=O)N2)NC(=O)[C@H](CSSC[C@@H](C(=O)N[C@@H](CCCCN)C(=O)N[C@@H](Cc2ccc(O)cc2)C(=O)N[C@H](C(=O)N[C@@H](Cc2ccccc2)C(N)=O)C(C)C)NC(=O)[C@H](Cc2c[nH]c4ccccc24)NC(=O)[C@H](CCCNC(=N)N)NC(=O)[C@H](Cc2c[nH]cn2)NC(=O)[C@H](CC(C)C)NC(=O)[C@H](CCCNC(=N)N)NC(=O)[C@H](CO)NC3=O)NC(=O)[C@H](CCCCN)NC(=O)[C@H](CC(=O)O)NC1=O (H-DCLGAFRKCIPD[Pra]DKCCRPNLVCSRLHRWCKYVF-NH2; disulfide 2-17, 9-23, 16-30)
IC50 [1]: 3 nM
IC50 [2]: > 10000 nM

CC[C@H](C)[C@@H]1NC(=O)[C@@H]2CSSC[C@@H]3NC(=O)[C@H](C(C)C)NC(=O)[C@H](CC(C)C)NC(=O)[C@H](CC(N)=O)NC(=O)[C@@H]4CCCN4C(=O)[C@H](CCCNC(=N)N)NC(=O)[C@H](CSSC[C@H](NC(=O)[C@@H](N)CC(=O)O)C(=O)N[C@@H](CC(C)C)C(=O)NCC(=O)N[C@@H](C)C(=O)N[C@@H](CC(C)C)C(=O)N[C@@H](CCCNC(=N)N)C(=O)N[C@@H](CCCCN)C(=O)N2)NC(=O)[C@H](CSSC[C@@H](C(=O)N[C@@H](CCCCN)C(=O)N[C@@H](Cc2ccc(O)cc2)C(=O)N[C@H](C(=O)N[C@@H](Cc2ccccc2)C(=O)N[C@@H](Cc2c[nH]c4ccccc24)C(=O)O)C(C)C)NC(=O)[C@H](Cc2c[nH]c4ccccc24)NC(=O)[C@H](CCCNC(=N)N)NC(=O)[C@H](Cc2c[nH]cn2)NC(=O)[C@H]([C@@H](C)O)NC(=O)[C@H](CCCNC(=N)N)NC(=O)[C@H](CO)NC3=O)NC(=O)[C@H](CCCCN)NC(=O)[C@H](CC(=O)O)NC(=O)[C@H](CC(N)=O)NC(=O)[C@H](CC(=O)O)NC(=O)[C@@H]2CCCN2C1=O (H-DCLGALRKCIPDNDKCCRPNLVCSRTHRWCKYVFW-OH; disulfide 2-17, 9-23, 16-30)
IC50 [1]: 50 nM
IC50 [2]: > 10000 nM

CC[C@@H]1NC(=O)[C@H](CC(=O)O)NC(=O)[C@@H]2CCCN2C(=O)[C@H]([C@@H](C)CC)NC(=O)[C@@H]2CSSC[C@@H]3NC(=O)[C@H](C(C)C)NC(=O)[C@H](CC(C)C)NC(=O)[C@H](CC(N)=O)NC(=O)[C@@H]4CCCN4C(=O)[C@H](CCCNC(=N)N)NC(=O)[C@H](CSSC[C@H](NC(=O)[C@@H](N)CC(=O)O)C(=O)N[C@@H](CC(C)C)C(=O)NCC(=O)N[C@@H](C)C(=O)N[C@@H](CC(C)C)C(=O)N[C@@H](CCCNC(=N)N)C(=O)N[C@@H](CCCCN)C(=O)N2)NC(=O)[C@H](CSSC[C@@H](C(=O)N[C@@H](CCCCN)C(=O)N[C@@H](Cc2ccc(O)cc2)C(=O)N[C@H](C(=O)N[C@@H](Cc2ccccc2)C(N)=O)C(C)C)NC(=O)[C@H](Cc2c[nH]c4ccccc24)NC(=O)[C@H](CCCNC(=N)N)NC(=O)[C@H](Cc2c[nH]cn2)NC(=O)[C@H](CC(C)C)NC(=O)[C@H](CCCNC(=N)N)NC(=O)[C@H](CO)NC3=O)NC(=O)[C@H](CCCCN)NC(=O)[C@H](CC(=O)O)NC1=O (H-DCLGALRKCIPD[Abu]DKCCRPNLVCSRLHRWCKYVF-NH2; disulfide 2-17, 9-23, 16-30)
IC50 [1]: 8.7 nM
IC50 [2]: > 10000 nM

C#CCCC(=O)NCCCC[C@@H]1NC(=O)[C@H](CC(=O)O)NC(=O)[C@@H]2CCCN2C(=O)[C@H]([C@@H](C)CC)NC(=O)[C@@H]2CSSC[C@@H]3NC(=O)[C@H](C(C)C)NC(=O)[C@H](CC(C)C)NC(=O)[C@H](CC(N)=O)NC(=O)[C@@H]4CCCN4C(=O)[C@H](CCCNC(=N)N)NC(=O)[C@H](CSSC[C@H](NC(=O)[C@@H](N)CC(=O)O)C(=O)N[C@@H](CC(C)C)C(=O)NCC(=O)N[C@@H](CC)C(=O)N[C@@H](CC(C)C)C(=O)N[C@@H](CCCNC(=N)N)C(=O)N[C@@H](CCCCN)C(=O)N2)NC(=O)[C@H](CSSC[C@@H](C(=O)N[C@@H](CCCCN)C(=O)N[C@@H](Cc2ccc(O)cc2)C(=O)N[C@H](C(=O)N[C@@H](Cc2ccccc2)C(N)=O)C(C)C)NC(=O)[C@H](Cc2c[nH]c4ccccc24)NC(=O)[C@H](CCCNC(=N)N)NC(=O)[C@H](Cc2c[nH]cn2)NC(=O)[C@H]([C@@H](C)O)NC(=O)[C@H](CCCNC(=N)N)NC(=O)[C@H](CO)NC3=O)NC(=O)[C@H](CCCCN)NC(=O)[C@H](CC(=O)O)NC1=O (H-DCLG[Abu]LRKCIPDK(Pent4ynoyl)DKCCRPNLVCSRTHRWCKYVF-NH2; disulfide 2-17, 9-23, 16-30)
IC50 [1]: 2 nM
IC50 [2]: > 10000 nM

CC[C@H](C)[C@@H]1NC(=O)[C@@H]2CSSC[C@@H]3NC(=O)[C@H](C(C)C)NC(=O)[C@H](CC(C)C)NC(=O)[C@H](CC(N)=O)NC(=O)[C@@H]4CCCN4C(=O)[C@H](CCCNC(=N)N)NC(=O)[C@H](CSSC[C@H](NC(=O)[C@H](CC(=O)O)NC(=O)[C@H](CO)NC(=O)CN)C(=O)N[C@@H](CC(C)C)C(=O)NCC(=O)N[C@@H](C)C(=O)N[C@@H](Cc4ccccc4)C(=O)N[C@@H](CCCNC(=N)N)C(=O)N[C@@H](CCCCN)C(=O)N2)NC(=O)[C@H](CSSC[C@@H](C(=O)N[C@@H](CCCCN)C(=O)N[C@@H](Cc2ccc(O)cc2)C(=O)N[C@H](C(=O)N[C@@H](Cc2ccccc2)C(=O)N[C@@H](Cc2ccccc2)C(=O)O)C(C)C)NC(=O)[C@H](Cc2c[nH]c4ccccc24)NC(=O)[C@H](CCCNC(=N)N)NC(=O)[C@H](Cc2c[nH]cn2)NC(=O)[C@H]([C@@H](C)O)NC(=O)[C@H](CCCNC(=N)N)NC(=O)[C@H](CO)NC3=O)NC(=O)[C@H](CCCCN)NC(=O)[C@H](CC(=O)O)NC(=O)[C@H](CC(N)=O)NC(=O)[C@H](CC(=O)O)NC(=O)[C@@H]2CCCN2C1=O (H-GSDCLGAFRKCIPDNDKCCRPNLVCSRTHRWCKYVFF-OH; disulfide 4-19, 11-25, 18-32)
IC50 [1]: 47 nM
IC50 [2]: > 10000 nM
